Data: patent US8058009B2, “Target protein and target gene in drug designing and screening method” (Reverse Proteomics Research Institute Co., Ltd., priority 2004, dated 2011)

Assays:
FLJ14797-derived protein = target: T1, FLJ14797-derived protein (Homo sapiens, UniProt Q9UGJ1); test: Biacore S51 surface plasmon resonance binding to FLJ14797-derived protein
T1 construct: made in house; host or cells: wheat germ cell-free synthesis system (PROTEIOS, Toyobo)
Procedure: (§1) A desired gene of a human full-length cDNA clone was BP-reacted with the PCR cloning vector Gateway pDONR201 using the Invitrogen Gateway system per the kit protocol to yield an entry vector. […]
(§2) The surface of the CM5 sensor chip for S51 commercially available from Biacore Company was subjected to an NTA treatment with 1 M EDC, 1.33 M NHS and 16 mg/ml AB-NTA (pH 9.2) to prepare an NTA sensor chip for S51. […] A correction for the effect of DMSO contained in the compound solutions and running buffer (solvent correction) was performed on the basis of measured results from separately prepared solutions mimicking the running buffer, and containing 3.8 to 5.1% of DMSO (8 points). The compound characterization assay program for Biacore S51 was performed to measure the interactions between immobilized ligands (proteins) and analytes (compounds; 62.5 μM to 0.244 μM), and the results were analyzed using a dedicated software program. […]

FLJ10335-derived protein = target: T2, FLJ10335-derived protein (Homo sapiens, UniProt Q9NW38, S77P); test: Biacore S51 surface plasmon resonance binding to FLJ10335-derived protein
T2 construct: made in house; host or cells: wheat germ cell-free synthesis system (PROTEIOS, Toyobo)
T2 sequence (Q9NW38 1-375 S77P): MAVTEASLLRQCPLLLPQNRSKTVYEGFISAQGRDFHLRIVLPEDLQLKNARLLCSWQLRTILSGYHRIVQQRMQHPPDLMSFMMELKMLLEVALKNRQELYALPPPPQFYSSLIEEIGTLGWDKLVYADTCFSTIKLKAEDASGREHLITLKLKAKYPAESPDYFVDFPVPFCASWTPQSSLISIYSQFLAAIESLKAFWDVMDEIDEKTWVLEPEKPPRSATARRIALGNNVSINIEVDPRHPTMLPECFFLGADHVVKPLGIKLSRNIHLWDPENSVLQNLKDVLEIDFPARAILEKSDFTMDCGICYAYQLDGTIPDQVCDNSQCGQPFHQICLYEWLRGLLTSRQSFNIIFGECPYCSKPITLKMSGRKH
Procedure: as §1, §2

FLJ11045-derived protein = target: T3, FLJ11045-derived protein (Homo sapiens, UniProt Q9BXT8, E1380K); test: Biacore S51 surface plasmon resonance binding to FLJ11045-derived protein
T3 construct: made in house; host or cells: wheat germ cell-free synthesis system (PROTEIOS, Toyobo)
T3 sequence (Q9BXT8 949-1581 isoform Q9BXT8-4 E1338K): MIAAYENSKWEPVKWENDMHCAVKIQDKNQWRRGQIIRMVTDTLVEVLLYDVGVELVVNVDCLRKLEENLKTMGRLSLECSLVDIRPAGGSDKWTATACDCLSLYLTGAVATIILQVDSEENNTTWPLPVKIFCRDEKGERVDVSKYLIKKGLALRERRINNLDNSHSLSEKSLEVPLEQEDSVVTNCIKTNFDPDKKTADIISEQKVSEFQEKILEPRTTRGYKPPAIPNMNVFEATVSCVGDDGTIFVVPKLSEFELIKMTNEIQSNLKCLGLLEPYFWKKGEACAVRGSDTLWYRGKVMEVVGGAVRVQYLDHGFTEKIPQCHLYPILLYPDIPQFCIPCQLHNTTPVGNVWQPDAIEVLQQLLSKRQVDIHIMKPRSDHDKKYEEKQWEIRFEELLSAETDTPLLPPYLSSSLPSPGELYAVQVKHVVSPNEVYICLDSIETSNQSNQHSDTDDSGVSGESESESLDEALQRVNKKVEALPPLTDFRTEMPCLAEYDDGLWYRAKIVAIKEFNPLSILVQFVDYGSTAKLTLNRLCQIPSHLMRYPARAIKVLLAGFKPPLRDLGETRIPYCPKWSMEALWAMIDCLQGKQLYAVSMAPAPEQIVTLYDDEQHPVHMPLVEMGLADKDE
Source text: A desired gene of a human full-length cDNA clone was BP-reacted with the PCR cloning vector Gateway pDONR201 using the Invitrogen Gateway system per the kit protocol to yield an entry vector. As the destination vector for the Gateway system, a Gateway cassette having a Gateway recombinant sequence was introduced to allow the utilization of the Gateway system on the basis of pEU3-NII (Toyobo), which matches with a cell-free protein synthesis system (PROTEIOS) of Toyobo Co., Ltd., which employs a wheat germ extract, and a double tag destination vector modified using the PCR method to allow the expression of a peptide having a histidine tag and a FLAG tag sequence in the N-terminal region of the expressed protein was prepared.
The prepared double tag destination vector and entry vector were […] using the Invitrogen Gateway system per the protocol and the Escherichia coli competent cell DH5α was transformed therewith; a clone incorporating the expression vector was selected. A plasmid was prepared from the obtained clone using the QIAfilter Midi kit (QUIAGEN) per the kit protocol. The plasmid obtained was subjected to phenol/chloroform treatment per the protocol for PROTEIOS (Toyobo) to inactivate the RNase to yield a purified expression plasmid.
A recombinant protein was synthesized using a cell-free protein synthesis system (PROTEIOS) of Toyobo Co., Ltd., which employs a wheat germ extract. Subsequently, mRNA was prepared from the expression plasmid acquired by the method described in section 1 above per the protocol for PROTEIOS. With 20 μg of the mRNA acquired, a protein was synthesized per the protocol for PROTEIOS using two wells of a 96-well microtiter plate. The protein synthesized was subjected to high-speed centrifugation, the precipitate was removed, and the resulting soluble fraction was purified using ANTI-FLAG M2 Affinity Gel (SIGMA Company) having an anti-FLAG tag antibody immobilized hereto per the protocol, to yield a purified protein.
as §2

FLJ11474-derived protein = target: T4, FLJ11474-derived protein (Homo sapiens, UniProt Q9BVC4); test: Biacore S51 surface plasmon resonance binding to FLJ11474-derived protein
T4 construct: made in house; host or cells: wheat germ cell-free synthesis system (PROTEIOS, Toyobo)
Procedure: as §1, §2

FLJ14467-derived protein = target: T5, FLJ14467-derived protein (Homo sapiens, UniProt Q9HB40); test: Biacore S51 surface plasmon resonance binding to FLJ14467-derived protein
T5 construct: made in house; host or cells: wheat germ cell-free synthesis system (PROTEIOS, Toyobo)
T5 sequence (Q9HB40 27-452): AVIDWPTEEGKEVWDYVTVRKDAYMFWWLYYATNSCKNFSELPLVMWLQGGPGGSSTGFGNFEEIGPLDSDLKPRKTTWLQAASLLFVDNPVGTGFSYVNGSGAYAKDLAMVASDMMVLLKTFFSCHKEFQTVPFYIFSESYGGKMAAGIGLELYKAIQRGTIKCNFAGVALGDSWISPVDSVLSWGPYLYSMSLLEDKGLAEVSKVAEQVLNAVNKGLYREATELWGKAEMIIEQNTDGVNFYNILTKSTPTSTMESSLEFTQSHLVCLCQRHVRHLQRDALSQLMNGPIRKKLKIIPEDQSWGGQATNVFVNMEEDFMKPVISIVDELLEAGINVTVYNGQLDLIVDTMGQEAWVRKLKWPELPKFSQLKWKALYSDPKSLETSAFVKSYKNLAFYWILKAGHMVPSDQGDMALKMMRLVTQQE
Procedure: as §1, §2

FLJ31146-derived protein = target: T6, FLJ31146-derived protein (Homo sapiens, UniProt Q9BSE4); test: Biacore S51 surface plasmon resonance binding to FLJ31146-derived protein
T6 construct: made in house; host or cells: wheat germ cell-free synthesis system (PROTEIOS, Toyobo)
T6 sequence (Q9BSE4 1-406): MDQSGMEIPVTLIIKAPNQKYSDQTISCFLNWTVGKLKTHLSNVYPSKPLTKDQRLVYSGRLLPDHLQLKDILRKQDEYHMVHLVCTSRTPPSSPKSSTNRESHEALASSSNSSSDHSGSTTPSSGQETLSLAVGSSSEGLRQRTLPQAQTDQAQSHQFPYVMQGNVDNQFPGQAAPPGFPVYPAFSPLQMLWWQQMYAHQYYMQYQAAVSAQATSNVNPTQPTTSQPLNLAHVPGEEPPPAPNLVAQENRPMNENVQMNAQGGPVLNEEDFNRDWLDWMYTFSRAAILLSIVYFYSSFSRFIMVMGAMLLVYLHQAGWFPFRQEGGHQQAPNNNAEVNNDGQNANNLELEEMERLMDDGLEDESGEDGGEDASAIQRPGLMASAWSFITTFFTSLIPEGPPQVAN
Procedure: as §1, §2

T4 sequence (Q9BVC4 1-325 isoform Q9BVC4-5): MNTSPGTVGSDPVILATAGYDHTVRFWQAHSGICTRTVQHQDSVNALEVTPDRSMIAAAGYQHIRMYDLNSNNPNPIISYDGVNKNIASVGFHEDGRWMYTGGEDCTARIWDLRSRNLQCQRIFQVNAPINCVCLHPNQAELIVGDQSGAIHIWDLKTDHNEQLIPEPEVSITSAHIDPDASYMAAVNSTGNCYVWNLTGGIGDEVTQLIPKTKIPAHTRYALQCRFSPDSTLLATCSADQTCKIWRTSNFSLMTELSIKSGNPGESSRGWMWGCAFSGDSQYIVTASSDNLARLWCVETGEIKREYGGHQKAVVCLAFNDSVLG
T1 sequence (Q9UGJ1 whole entry): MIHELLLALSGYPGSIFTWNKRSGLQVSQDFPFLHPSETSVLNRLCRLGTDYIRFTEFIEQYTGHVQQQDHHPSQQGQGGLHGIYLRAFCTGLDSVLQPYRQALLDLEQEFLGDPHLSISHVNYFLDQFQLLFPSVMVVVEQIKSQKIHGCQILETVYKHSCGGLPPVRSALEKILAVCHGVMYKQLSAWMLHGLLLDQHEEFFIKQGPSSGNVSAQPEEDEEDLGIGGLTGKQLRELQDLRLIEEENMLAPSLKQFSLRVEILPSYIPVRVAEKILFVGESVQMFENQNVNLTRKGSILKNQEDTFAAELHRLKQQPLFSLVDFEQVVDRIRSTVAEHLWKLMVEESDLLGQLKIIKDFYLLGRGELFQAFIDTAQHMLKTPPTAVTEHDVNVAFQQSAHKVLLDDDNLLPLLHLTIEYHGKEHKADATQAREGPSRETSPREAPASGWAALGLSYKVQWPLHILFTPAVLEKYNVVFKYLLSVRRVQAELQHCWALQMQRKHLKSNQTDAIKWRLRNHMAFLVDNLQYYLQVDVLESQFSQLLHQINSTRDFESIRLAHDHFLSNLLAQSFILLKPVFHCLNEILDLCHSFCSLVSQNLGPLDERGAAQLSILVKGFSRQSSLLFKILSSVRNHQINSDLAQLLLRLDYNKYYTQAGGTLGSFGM

## O=C(c1ccc(F)cc1)C1CCN(CCn2c(=O)[nH]c3ccccc3c2=O)CC1 [ketanserin]
FLJ14797-derived protein
  interaction with the protein (binding level dose-proportional, saturated at high doses): interact specifically

## N[C@@H](C(=O)N[C@@H]1C(=O)N2C(C(=O)O)=C(Cl)CS[C@H]12)c1ccccc1 [cefaclor]
FLJ10335-derived protein
  interaction with the protein (binding level dose-proportional, saturated at high doses): interact specifically
FLJ11045-derived protein; Biacore S51, immobilized FLJ11045-derived protein, analyte 62.5 μM to 0.244 μM, read-out: binding dissociation constant Kd
  Kd: 12.4 µM
FLJ11045-derived protein; FLJ11045-derived protein, Biacore S51
  interaction with the protein (binding level dose-proportional, saturated at high doses): interact specifically
FLJ11474-derived protein
  interaction with the protein (binding level dose-proportional, saturated at high doses): interact specifically
FLJ14467-derived protein
  interaction with the protein (binding level dose-proportional, saturated at high doses): interact specifically

## CC1(C)S[C@@H]2[C@H](NC(=O)[C@H](N)c3ccccc3)C(=O)N2[C@H]1C(=O)O [ampicillin]
FLJ31146-derived protein
  interaction with the protein (binding level dose-proportional, saturated at high doses): interact specifically
